The values that follow come from patent US20240269158A1, “THERAPEUTIC AGENTS AND METHODS FOR TREATMENT OF BARTONELLOSIS” (THE ADMINISTRATORS OF THE TULANE EDUCATIONAL FUND, priority 2021, published 2024).

For one test, the system named is B. henselae. Kind of test: Cell-free, liquid culture MBC assay. The test is classed as cell-based, Bartonella henselae. The settings on record: 96 hrs, plated on blood agar. How it is done: The B. henselae strains used were San Antonio 2, 267HO04, a human clinical isolate and B. vinsonii subsp. berkhoffii. Both the bacteria were initially grown on tryptic soy agar (TSA) supplemented with 5% defibrinated sheep blood plates that were either pre-made (Remel, R01198) or homemade, in a humidified atmosphere at 37° C. with 5% CO2 for 7 days. For the preparation of liquid cultures, an individual well-grown colony from the plate was resuspended in 15 ml Falcon tubes containing 3 mL of either Schneider's insect media supplemented with 10% FBS, or Grace's insect media (Gibco, 11605-094) supplemented with 10% FBS, or BAPGM serum-free liquid media. The cultures grew for 7 more days in the atmosphere as above without shaking. The number of viable bacteria was determined by either plating serial dilutions of the culture on plates for CFU or by live/dead staining. Before every experiment, bacteria were mixed well and passed through 22-gauge needle to break large clumps of bacteria.
Briefly, the bacterial culture that was treated with therapeutic agents for 96 hrs was collected into a 1.5 ml microcentrifuge tubes and centrifuged at 7000 rpm for 10 min. The supernatant was removed, and the bacterial pellet was washed with 1×PBS twice. The bacterial pellet was then resuspended in 100 μL of 1×PBS, plated onto blood agar plates and incubated at 37° C. with 5% CO2 for about 14 days. This assay was repeated three times with all the 6 different antibiotics (azlocillin, azithromycin, ceftriaxone, doxycycline, gentamicin and ampicillin) and at different concentrations.
Therapeutic agent stocks were prepared in the following solvents: 10 mg/ml of ceftriaxone (USP), doxycycline (Fisher scientific, D9891-1G), gentamicin (Fisher scientific, 1405-41-0), ampicillin (Fisher scientific, 69-52-3) and azlocillin (Flightpath) in sterile cell culture grade water, whereas 5 mg/ml of azithromycin (Sigma, PZ0007-5MG) was dissolved in sterile cell culture grade DMSO. Antibiotics were then aliquoted and stored at either −80° C. or −20° C. until further use. On the day of assay, these stock concentrations were diluted to 1 mg/ml and 100 μg/ml in the respected bacterial culture media for MIC and cell-free, liquid culture MBC assays. For the DH82 cell-based MBC assay, antibiotics were diluted in EMEM media supplemented with 15% heat inactivated FBS.
For this assay, both B. henselae and B. vinsonii were grown in Grace's insect media and were tested against all of the 6 antibiotics (ceftriaxone, doxycycline, gentamicin, azithromycin, azlocillin, ampicillin).

In test [1] the test system is B. henselae and B. vinsonii. As to the kind of experiment: Live/dead BacLight staining. It counts as cell-based, Bartonella. The settings on record: 10 μg/ml. How it is done:
To determine the viability of the bacteria grown in liquid culture media, LIVE/DEAD BacLight™ Bacterial viability kit for microscopy (ThermoFisher, L7012) was used according to the manufacturer's protocol. Briefly, 7-day old liquid culture media was used for the determination of the viability. Initially, bacteria were diluted down to an optical density (OD) of 0.1 using the respective liquid culture media. 1 ml of 0.1 OD bacterial culture was then transferred into a 2 ml microcentrifuge tube and centrifuged at 7000 rpm for 10 min. After removing the supernatant, the pellet was resuspended in 1 ml of 0.85% NaCl and bacteria was pelleted again. After three washes, bacteria were resuspended in 1 ml of 0.85% NaCl and incubated with 1 μl of green-fluorescent nucleic acid dye (SYTO9) and 1 μl of red-fluorescent nucleic acid dye (PI) for 15 minutes. All the incubations were performed at room temperature and in the dark. After 15 minutes of incubation with both the dyes, bacteria were visualized under fluorescence microscopy and images were acquired using Nikon NIS elements software. Later, mean fluorescence intensity of both the SYTO9 and PI was measured using the Nikon elements software. Mean fluorescence values were acquired from a total of 10 images per experimental condition. To obtain dead cell counts, bacteria were treated with 70% isopropanol and incubated for 1 hr, while the sample was mixed for every 15 min and stained as above. Additionally, the entire staining protocol was repeated by staining the bacteria with PI first and then with SYTO9 both on dead and live bacteria and the fluorescence values were recorded accordingly. However, in the staining of therapeutic agent treated bacteria, both the dyes were pre-mixed into 1 ml of sterile-filtered distilled water, as previously described and 10 μl of the mixture was added into each well, incubated and visualized as described above.
Bacteria were stained with the live/dead BacLight™ kit to determine the viability of the bacteria before every experiment. […] Viability was also measured after 96 hours on control, untreated bacteria. […]

The mark [2] stands for this setting: Bartonella henselae, read-out: MBC.

Values after ≈ are worked out from the molar mass of the structure shown. Like-named read-outs stand apart in the source and are kept apart here.

One may read the MBC as the smallest concentration meeting the test's criterion for killing. In the case of `CC[C@H]1OC(=O)[C@H](C)[C@@H](O[C@H]2C[C@@](C)(OC)[C@@H](O)[C@H](C)O2)[C@H](C)[C@@H](O[C@@H]2O[C@H](C)C[C@H](N(C)C)[C@H]2O)[C@](C)(O)C[C@@H](C)CN(C)[C@H](C)[C@@H](O)[C@]1(C)O` [Azithromycin, azithromycin], in the test on B. henselae (setting [2]), the MBC lay in the range of 5 to 10 mg/L (≈ 6.68 to 13.4 µM). Further, in test [1], the “live/dead staining signal of treated bacteria” value (shortened to “live/dead staining signal”) is listed as “showed only SYTO9 signal”. Take `CC1(C)S[C@@H]2[C@H](NC(=O)[C@H](NC(=O)N3CCNC3=O)c3ccccc3)C(=O)N2[C@H]1C(=O)O` [Azlocillin, azlocillin]: the MBC in the test with B. henselae (setting [2]) was in the range of 1 to 2 mg/L (≈ 2.17 to 4.33 µM). In addition, the “live/dead staining signal” value in test [1] is “showed only SYTO9 signal”.

Regarding `CO/N=C(\C(=O)N[C@@H]1C(=O)N2C(C(=O)O)=C(CSc3nc(=O)c(=O)[nH]n3C)CS[C@H]12)c1csc(N)n1` [Ceftriaxone, ceftriaxone], the minimum bactericidal concentration (MBC) in the test with B. henselae (setting [2]) lay within 2 to 4 mg/L (≈ 3.61 to 7.21 µM). The “live/dead staining signal” value in test [1] is recorded as “showed only SYTO9 signal”. For gentamicin, the MBC in the test on B. henselae fell in the range of 2.0 to 4.0 mg/L.
